From patent publication US6303618A, “Cyclin dependent kinase inhibiting purine derivatives” (priority 1997, dated 2001)
Values joined by “and” are separate entries in the source; they are usually repeats but may differ in a detail not shown here. Identical values can stand only once. Like-named read-outs stand apart in the source and are kept apart here.

Columns and labels:
CDK1 (p34 cdc2)/cyclin B = test: CDK inhibition assay (histone H1 kinase), CDK1; assay type: biochemical, starfish (Marthasterias glacialis); details: for IC50: CDK1, Table 1
Protocol: (§1) By way of example, however, a typical protocol is summarised below.
Histone H1 (type III-S (Sigma) 4° C.) 5 mg/ml in buffer C.
[^32 P]ATP […]: Make up using (multiples of) the following proportions:
DMSO cannot exceed 1% in the assay mixture. Inhibitors are added at 1/10 final assay volume and 10×final strength. DMSO stocks must therefore be diluted to 10×final desired concentration in ≤10% DMSO, ≥90% buffer C.
Start reaction in each tube at 30 second intervals by adding
5 ml [^32 P]ATP vortexing and placing in rack in waterbath at 30° C.
Terminate reaction after 10 min at 30 second intervals in tubes in same order by removing
25 ml reaction mix and spotting onto appropriately labelled filter, allowing to dry for 20-30 seconds and transferring to stirring 1% phosphoric acid.
Blank incubation is performed as above but without histone (add […] buffer C instead) Washing blank is […] ATP added directly to filter.

CDK4 [1] = molecular target: T1, CDK4 (Homo sapiens, UniProt P11802); test: CDK inhibition assay, CDK4; assay type: biochemical; details: Table 1
T1 sequence (P11802 whole entry, species assumed): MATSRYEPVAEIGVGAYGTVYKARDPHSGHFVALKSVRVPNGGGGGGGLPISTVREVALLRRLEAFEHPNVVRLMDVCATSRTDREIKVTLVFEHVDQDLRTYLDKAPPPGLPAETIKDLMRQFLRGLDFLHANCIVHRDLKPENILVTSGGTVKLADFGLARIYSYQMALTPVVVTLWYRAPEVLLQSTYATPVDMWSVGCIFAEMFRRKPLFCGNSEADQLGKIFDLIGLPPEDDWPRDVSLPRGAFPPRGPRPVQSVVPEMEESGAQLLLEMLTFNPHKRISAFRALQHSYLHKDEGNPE
T1 sequence (P24385 whole entry partner, species assumed): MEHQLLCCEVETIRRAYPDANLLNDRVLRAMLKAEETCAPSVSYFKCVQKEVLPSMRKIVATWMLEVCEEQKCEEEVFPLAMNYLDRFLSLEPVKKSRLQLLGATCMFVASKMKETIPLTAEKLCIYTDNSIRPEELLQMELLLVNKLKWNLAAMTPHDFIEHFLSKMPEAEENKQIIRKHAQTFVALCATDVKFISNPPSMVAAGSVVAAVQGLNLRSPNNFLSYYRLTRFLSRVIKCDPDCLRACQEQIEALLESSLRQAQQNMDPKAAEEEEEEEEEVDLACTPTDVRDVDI
From the text: (§2) Apart from reference compounds, the compounds listed are accompanied by an NU reference or identification code number.
as §1

[2] = tested on: O^6 -methylguanine DNA-methyltransferase (MGMT)
Cytotoxicity = assay type: cell-based
[3] = Insolubility noted in the CDK assay
CDK2 = CDK2 (Homo sapiens, UniProt P24941); test: CDK inhibition assay, CDK2; assay type: biochemical; details: for IC50: Table 1; for inhibition at 100 µM: read-out: % inhibition CDK2, at 100 μM
From the text: as §2, §1

CDK4 [4] = molecular target: T1, CDK4; details: in words; cited from earlier work
CDK = details: in words; cited from earlier work
[5] = tested on: many common kinases other than CDK's; details: in words; cited from earlier work
CDK6 = details: in words; cited from earlier work
[6] = read-out: % inhibition CDK2, at 10 μM
[7] = at 10 μM, read-out: % inhibition CDK2

Row | SMILES | IC50 (CDK4 [1]; CDK4, read-out: IC50 CDK4) | insolubility in CDK2 assay ([3]; at 100 μM) | inhibition at 10 µM (CDK2; [6]) [%] | % inhibition CDK1 (CDK1 (p34 cdc2)/cyclin B; at 10 μM) [%] | other results
1 | Nc1nc(OCC2CCCCC2)c2nc[nH]c2n1 [NU2058, O^6 -Cyclohexylmethylguanine] | – | – | – | – | inhibitory activity against CDK1(cdc2)/cyclin B complexes (CDK1 (p34 cdc2)/cyclin B; in words, compared with olomoucine): very high inhibitory activity, comparable to that of olomoucine; IC50 (CDK4 [1]; IC50 CDK4, CDK4): 38 µM; activity as MGMT inhibitor [2]: very little activity; cytotoxicity (Cytotoxicity): cytotoxic
2 | Nc1nc(OCC23CC4CC(CC(C4)C2)C3)c2[nH]cnc2n1 [NU6014, 2-amino-6-adamantyl-methyloxypurine] | > 100 µM | Insol | 20 ± 4 | – | –
3 | Nc1nc(N)c(N=Nc2ccc(Cl)cc2)c(OCC2CCCCC2)n1 [NU6037] | – | Insol | – | 3 ± 3 | inhibition at 10 µM (CDK2; [7]): 6 ± 4%
4 | CC[C@H](CO)Nc1nc(NCc2ccccc2)c2ncn(C(C)C)c2n1 [roscovitine, 6-(benzylamino)-2(R)-[{1-(hydroxy-methyl)propyl}amino]-9-isopropylpurine] | – | – | – | – | activity against CDK4 (CDK4 [4]): neither has been found to be active; mode of inhibition (CDK): competitive inhibitors for ATP binding
5 | C=C(C)[C@@H]1CC=C(COc2nc(N)nc3[nH]cnc23)CC1 [NU2077] | > 100 µM | insol | 16 ± 26 | – | IC50 (CDK1 (p34 cdc2)/cyclin B): 22 µM; inhibition at 25 µM (CDK2; read-out: % inhibition CDK2, at 25 μM): 54%
6 | Nc1nc(OCc2cccc3ccccc23)c2nc[nH]c2n1 [NU6020, 2-amino-6-(1-naphthyl)-methyloxypurine] | > 100 µM | Insol | 3 ± 4 | 10 ± 4 | –
7 | Cn1cnc2c(NCc3ccccc3)nc(NCCO)nc21 [Olomoucine, 2-(2-hydroxyethylamino)-6-benzylamino-9-methyl-purine] | – | – | – | – | inhibitory activity in relation to many common kinases other than CDK's [5]: total lack of inhibitory activity; activity against CDK6 (CDK6): neither has been found to be active; mode of inhibition (CDK): competitive inhibitors for ATP binding
8 | Nc1nc(N)c(N=O)c(OCC2CCCCC2)n1 [NU6027, 2,6-diamino-4-cyclohexyl-methyloxy-5-nitroso-pyrimidine] | – | Insol | – | – | –
9 | Nc1nc(OCc2ccc3ccccc3c2)c2nc[nH]c2n1 [NU6018, 2-amino-6-(2-naphthyl)-methyloxypurine] | > 100 µM | Insol | 9 ± 9 | 12 ± 4 | –
10 | CN(C)c1nc(OCC2CCCCC2)c2nc[nH]c2n1 [NU6048, 2-dimethylamino-6-cyclohexyl methoxypurine] | – | Insol | – | 27 ± 6 | insolubility in CDK1 assay ([3]; at 100 μM): Insol; inhibition at 10 µM (CDK2; [7]): 31 ± 3%
11 | Nc1nc(OCC2CCCO2)c2nc[nH]c2n1 (stereo not drawn) [NU6013, 2-amino-6-(2-tetrahydro-furanyl)-methyloxypurine] | 261 µM | – | – | – | % inhibition CDK1 (CDK1 (p34 cdc2)/cyclin B; at 100 μM): 48 ± 7%; IC50 (CDK2; CDK2, read-out: IC50 CDK2): > 500 µM; inhibition at 100 µM (CDK2): 39 ± 5%
12 | Nc1nc(OCCC2CCCCC2)c2[nH]cnc2n1 [NU6023, 2-amino-6-cyclohexylethyloxypurine] | 69 µM | – | – | – | % inhibition CDK1 (CDK1 (p34 cdc2)/cyclin B; at 100 μM): 68 ± 6%; IC50 (CDK2; CDK2, read-out: IC50 CDK2): 47.6 µM; inhibition at 100 µM (CDK2): 58 ± 6%
13 | Nc1nc(OCc2ccccc2)c2[nH]cnc2n1 [NU2005, 2-amino-6-benzyloxypurine] | 100 µM | – | – | – | IC50 (CDK1 (p34 cdc2)/cyclin B): 35 µM; IC50 (CDK2; IC50 CDK2, CDK2): 28.6 µM; inhibition at 100 µM (CDK2): 64 ± 3%
14 | C=C(COc1nc(N)nc2[nH]cnc12)c1ccccc1 [NU2042, O^6-(2-Phenylallyl)guanine] | > 100 µM and 330 µM | – | – | – | IC50 (CDK1 (p34 cdc2)/cyclin B): 40 µM; IC50 (CDK2; CDK2, read-out: IC50 CDK2): 23.3 µM; inhibition at 100 µM (CDK2): 75 ± 2%
15 | Nc1cc(OCC2CCCCC2)nc(N)n1 [NU6034, 2,6-diamino-4(cyclohexylmethoxy)-pyrimidine] | – | Insol | 7 ± 3 | – | –
16 | Nc1nc(OCC2CCCCC2)c2[nH]c(=O)[nH]c2n1 [NU6033, 2-Amino-6-cyclohexylmethyloxy-8-oxopurine] | – | – | – | – | insolubility in CDK1 assay ([3]; at 10 μM): insol.
17 | Nc1nc(N)c(N=O)c(OCC2CC=CCC2)n1 (stereo not drawn) [NU6045] | – | Insol | 70 ± 1 | 73 ± 3 | IC50 (CDK2; CDK2, read-out: IC50 CDK2): 6.1 µM
18 | Clc1nc(OCC2CCCCC2)c2[nH]cnc2n1 [NU6047, 2-chloro-6-cyclohexylmethoxypurine] | – | Insol | 5 ± 3 | 6 ± 4 | insolubility in CDK1 assay ([3]; at 100 μM): Insol
